Measurements from PubChem BioAssay (NCI).
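Test compounds were applied to cells in 96-well plates for 48 hours at 5 doses. TGI denotes the concentration required for complete inhibition of growth.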

What was measured:
Test in all cases: inhibition of tumour cell growth, NCI panel, 48 h
U251 CNS = system: U251 CNS
HOP-62 NSCLC = system: HOP-62 NSCLC
SF-295 CNS = system: SF-295 CNS
OVCAR-4 ovarian = system: OVCAR-4 ovarian
T-47D breast = system: T-47D breast
MOLT-4 leukemia = system: MOLT-4 leukemia
HCT-15 colon = system: HCT-15 colon
OVCAR-8 ovarian = system: OVCAR-8 ovarian
NCI/ADR-RES ovarian = system: NCI/ADR-RES ovarian
NCI-H23 lung = system: NCI-H23 lung
SW-620 colon = system: SW-620 colon
LOX IMVI melanoma = system: LOX IMVI melanoma
HCC-2998 colon = system: HCC-2998 colon
MCF7 breast = system: MCF7 breast
SK-MEL-5 melanoma = system: SK-MEL-5 melanoma
NCI-H522 lung = system: NCI-H522 lung
PC-3 prostate = system: PC-3 prostate
OVCAR-3 ovarian = system: OVCAR-3 ovarian
BT-549 breast = system: BT-549 breast
MDA-MB-231 breast = system: MDA-MB-231 breast
OVCAR-5 ovarian = system: OVCAR-5 ovarian
NCI-H226 lung = system: NCI-H226 lung
UO-31 renal = system: UO-31 renal
MDA-MB-435 = system: MDA-MB-435
HS 578T breast = system: HS 578T breast
ACHN renal = system: ACHN renal
SNB-19 CNS = system: SNB-19 CNS
HT29 colon = system: HT29 colon
A549 NSCLC = system: A549 NSCLC
SR leukemia = system: SR leukemia
COLO 205 colon = system: COLO 205 colon
M14 melanoma = system: M14 melanoma
SF-539 CNS = system: SF-539 CNS
DU-145 prostate = system: DU-145 prostate
RPMI-8226 leukemia = system: RPMI-8226 leukemia
CCRF-CEM leukemia = system: CCRF-CEM leukemia
HCT-116 colon = system: HCT-116 colon
SF-268 CNS = system: SF-268 CNS
UACC-257 melanoma = system: UACC-257 melanoma
KM12 colon = system: KM12 colon
MALME-3M melanoma = system: MALME-3M melanoma
IGROV1 ovarian = system: IGROV1 ovarian
A498 renal = system: A498 renal
SK-MEL-2 melanoma = system: SK-MEL-2 melanoma
SK-OV-3 ovarian = system: SK-OV-3 ovarian
SK-MEL-28 melanoma = system: SK-MEL-28 melanoma
UACC-62 melanoma = system: UACC-62 melanoma
SNB-75 CNS = system: SNB-75 CNS
K-562 leukemia = system: K-562 leukemia
SN12C renal = system: SN12C renal
786-0 renal = system: 786-0 renal
TK-10 renal = system: TK-10 renal
MDA-N = system: MDA-N
HL-60(TB) leukemia = system: HL-60(TB) leukemia
EKVX NSCLC = system: EKVX NSCLC
RXF 393 renal = system: RXF 393 renal
NCI-H460 lung = system: NCI-H460 lung
CAKI-1 renal = system: CAKI-1 renal
HOP-92 NSCLC = system: HOP-92 NSCLC

Measured: TGI

CCn1c(SCC(=O)NNC(=S)Nc2ccc(C)cc2)nc2ccccc2c1=O
55.3 µM: UO-31 renal
not listed: NCI-H460 lung | CAKI-1 renal | HOP-92 NSCLC
> 100 µM: all other assays above

O=[N+]([O-])c1cccc2nc3ccccc3c(NCCC[N+]3([O-])CCOCC3)c12
0.689 µM: HOP-62 NSCLC
0.993 µM: SN12C renal
0.29 µM: HOP-92 NSCLC
3.44 µM: OVCAR-8 ovarian
1.29 µM: UACC-257 melanoma
2.22 µM: PC-3 prostate
4.69 µM: RPMI-8226 leukemia
3.81 µM: ACHN renal
0.608 µM: IGROV1 ovarian
3.33 µM: TK-10 renal
0.529 µM: NCI-H226 lung
1.3 µM: SF-539 CNS
0.761 µM: HT29 colon
0.984 µM: SK-MEL-28 melanoma
0.241 µM: SK-MEL-5 melanoma
0.729 µM: 786-0 renal
0.24 µM: COLO 205 colon
1.62 µM: LOX IMVI melanoma
2.01 µM: EKVX NSCLC
0.316 µM: NCI-H23 lung
0.919 µM: T-47D breast
0.871 µM: A549 NSCLC
0.964 µM: U251 CNS
0.683 µM: SNB-75 CNS
0.347 µM: MALME-3M melanoma
0.583 µM: CCRF-CEM leukemia
1.38 µM: SF-295 CNS
0.319 µM: UACC-62 melanoma
0.455 µM: OVCAR-4 ovarian
0.474 µM: OVCAR-3 ovarian
1.5 µM: OVCAR-5 ovarian
0.0393 µM: HCC-2998 colon
0.948 µM: MDA-MB-231 breast
0.422 µM: A498 renal
1.91 µM: SF-268 CNS
0.462 µM: NCI-H460 lung | NCI-H522 lung
0.366 µM: RXF 393 renal
39.2 µM: NCI/ADR-RES ovarian
4.59 µM: UO-31 renal
0.331 µM: MDA-MB-435
0.538 µM: KM12 colon
12.1 µM: CAKI-1 renal
0.277 µM: MDA-N
0.725 µM: MCF7 breast
0.921 µM: M14 melanoma
0.533 µM: HCT-116 colon
2.8 µM: SNB-19 CNS
6.42 µM: HCT-15 colon
1.02 µM: HL-60(TB) leukemia
1.4 µM: BT-549 breast
0.375 µM: SK-MEL-2 melanoma
> 40.8 µM: SR leukemia
0.868 µM: DU-145 prostate
1.53 µM: SK-OV-3 ovarian
1.6 µM: SW-620 colon
> 100 µM: all other assays above

COc1ccc(N2C(=O)C3ON(C(C(N)=O)c4ccccc4)C(c4cc5ccccc5c5ccccc45)C3C2=O)cc1 (stereo not given)
35.6 µM: MDA-N
46.9 µM: MOLT-4 leukemia
34.5 µM: UO-31 renal
18.5 µM: CAKI-1 renal
not listed: HCC-2998 colon | RPMI-8226 leukemia
> 50 µM: all other assays above

CCOC(=O)C(O)(NC(=O)c1ccc(F)cc1)C(F)(F)F (stereo not given)
not listed: A498 renal | 786-0 renal | NCI-H460 lung
> 100 µM: all other assays above

O=C1N[C@@H](c2c[nH]c3cc(Br)ccc23)C(=O)N[C@H]1c1c[nH]c2cc(Br)ccc12
60.1 µM: U251 CNS
80.2 µM: MDA-MB-231 breast
90.1 µM: SNB-75 CNS
not listed: MOLT-4 leukemia | CAKI-1 renal
> 100 µM: all other assays above

CN(C)CCCN1c2ccccc2Sc2cnccc21
94 µM: SK-MEL-2 melanoma
49.5 µM: UACC-257 melanoma
not listed: NCI-H23 lung | HCC-2998 colon
> 100 µM: all other assays above

CCOC(=O)CN=C1NNS(=O)(=O)c2ccccc21
not listed: SK-MEL-2 melanoma
> 100 µM: all other assays above
